Experimental data published in US8026073B2, “Screening G protein-coupled receptor antagonists for methods of treating Alzheimer's disease” (Shanghai Institutes for Biological Sciences, Chinese …, priority 2005, dated 2011).
“Also recorded” adds a separate entry of the source.

Key:
APPswe/PS1ΔE9 mice [1] = assay: Morris water maze, APPswe/PS1ΔE9 mice, Animal Model Experiment 1; conditions: for percent time spent in the platform quadrant, probe trial: 24 h after the final hidden platform training; for percent time spent in the platform quadrant, probe trial / escape latency, hidden platform training: versus control transgenic mice; for escape latency, visible platform training / escape latency, hidden platform training: oral administration from 4 months of age; for escape latency, visible platform training: transgenic mice; for swim speed as cause of the observed effects: FIG. 15d, 16d, 17d
[2] = stated as a property, no test described; cited from earlier work
γ-secretase [3] = assay: γ-Secretase fluorogenic substrate assay, acute hippocampal slices; type: cell-based, rat; conditions: 1 μM DADLE, 30 minutes
γ-secretase [4] = assay: γ-Secretase fluorogenic substrate assay, SH-SY5Y neuroblastoma; type: cell-based
Procedure: The enhancement of γ-secretase activity upon activation of receptors is not limited to β-AR. Similar results were also observed when endogenous DOR in SH-SY5Y neuroblastoma (FIG. 7a) or in primary hippocampal cultures (FIG. 7b) were stimulated.
Again, the involvement of LEL in the enhancement of the γ-secretase activity is not limited to β-AR. […] The experiment shown in FIG. 12 was performed with SH-SY5Y neuroblastoma. […] The fractions were subjected to […] (Aβ) assay and fluorogenic substrate assay.

APPswe/PS1ΔE9 mice [5] = assay: Cerebral amyloid plaque formation in APPswe/PS1ΔE9 mice after chronic administration; conditions: daily for 30 days, 3 nM Iso i.c.v., 2 mg/kg Cle oral, 1 mg/kg ICI 118,551 oral
[6] = test system: APPswe/PS1ΔE9 double-transgenic mice; assay: Morris water maze, APPswe/PS1ΔE9 mice, Animal Model Experiment 2; type: in vivo, mouse; conditions: for escape latency, visible platform / escape latency, hidden platform: oral daily for 30 days, 2 mg/kg clenbuterol or 1 mg/kg ICI 118,551; for escape latency, hidden platform: versus Sal mice
Procedure: In further animal experiments, four-month old APPswe/PS1ΔE9 double-transgenic mice were orally administered with saline (Sal), 2 mg/kg clenbuterol (Cle, a β2AR-selective agonist) or 1 mg/kg ICI 118,551 (ICI, a β2AR-selective antagonist) daily for 30 days.
The water maze was a circular 1.2 m pool filled with water at 24-25° C. and made opaque by the addition of milk powder. The pool was placed amid fixed spatial cues consisting of boldly patterned curtains and shelves containing distinct objects. […] Mice first underwent visible platform training for 2 consecutive days (eight trials per day), swimming to a raised circular platform (10 cm of diameter) marked with a pole. Visible platform days were split into two training blocks of four trials for statistical analysis. During visible platform training, both the platform location (NE, SE, SW, or NW) and start position (N, […], S, or W) were varied pseudo-randomly in each trial.
Hidden platform raining was conducted over 6 consecutive days (four trials per day), wherein mice were allowed to search for a platform submerged 1.5 cm beneath the surface of the water. Mice failing to reach the platform within 60 sec were led to the platform. During hidden-platform trials, the location of the platform remained constant, and mice entered the pool in one of the four pseudo-randomly selected locations (N, E, S, or W). After each hidden platform trial, mice remained on the platform for 30 sec and were removed from the platform and returned to their home cage.
Twenty-four hours after the final hidden platform training, a probe trial was conducted in which the platform was removed from the pool and mice were allowed to search for the platform for 60 sec. All trials were monitored by a camera mounted directly above the pool and were recorded and analyzed using a computerized tracking system.

γ-secretase [7] = conditions: wild-type versus presenilin-deficient MEFs; 10 μM Iso, 30 min
endogenous β-ARs = assay: Secreted Aβ ELISA in primary hippocampal cultures expressing C99, β-AR stimulation; type: cell-based, rat; conditions: 10 μM Iso, 1 h
γ-secretase [8] = assay: Immunofluorescence microscopy of acute hippocampal slices, localization of γ-secretase in LEL; conditions: Iso treatment
γ-secretase [9] = assay: γ-Secretase fluorogenic substrate assay, C6 glioma membrane fractions; type: cell-based
β2AR = target: T1, β2AR (Homo sapiens, UniProt P07550); assay: Secreted Aβ ELISA in HEK293 cells co-expressing β2AR and APPswe; type: cell-based; conditions: 10 μM Iso 1 h with 10 μM Pro, or after 6-h pre-treatment with 1 μM L685,458
T1 construct: expressed in transfected cells; host or cells: HEK293

γ-secretase [10] = assay: γ-Secretase activity in rat hippocampus after acute injection (fluorogenic substrate assay); conditions: rats, 2 μg norepinephrine i.c.v. or 0.5 mg/kg clenbuterol i.p.
Aβ40 and Aβ42 = assay: Aβ levels in rat hippocampus after acute injection (rat Aβ ELISA); conditions: rats, 2 μg norepinephrine i.c.v. or 0.5 mg/kg clenbuterol i.p.
δ-opioid receptor (DOR) = δ-opioid receptor (DOR) (Homo sapiens, UniProt P41143); conditions: C99-transfected HEK293 cells; DADLE plus NALT
γ-secretase [11] = assay: γ-Secretase fluorogenic substrate assay, HEK293 cells treated with transferrin; type: cell-based; conditions: transferrin-induced endocytosis
Procedure: However, it is till not clear whether clathrin-mediated endocytosis by itself is […] to induce the enhancement of γ-secretase activity. To answer this question, HEK293 cells were treated with transferrin, which can induce constitutive clathrin-dependent endocytosis of transferrin receptor.

T1 sequence (P07550 whole entry): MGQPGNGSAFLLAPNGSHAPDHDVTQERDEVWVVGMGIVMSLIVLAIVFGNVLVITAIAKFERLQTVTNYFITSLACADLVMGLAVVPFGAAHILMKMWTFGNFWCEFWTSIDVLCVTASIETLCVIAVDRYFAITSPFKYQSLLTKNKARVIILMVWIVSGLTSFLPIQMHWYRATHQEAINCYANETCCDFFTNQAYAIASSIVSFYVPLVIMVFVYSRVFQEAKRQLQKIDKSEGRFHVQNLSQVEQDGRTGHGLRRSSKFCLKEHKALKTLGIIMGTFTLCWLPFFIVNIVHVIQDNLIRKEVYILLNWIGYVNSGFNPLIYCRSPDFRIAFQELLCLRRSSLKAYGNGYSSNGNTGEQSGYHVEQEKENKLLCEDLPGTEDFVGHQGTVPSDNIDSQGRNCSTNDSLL
Sequence of δ-opioid receptor (DOR) (P41143 whole entry): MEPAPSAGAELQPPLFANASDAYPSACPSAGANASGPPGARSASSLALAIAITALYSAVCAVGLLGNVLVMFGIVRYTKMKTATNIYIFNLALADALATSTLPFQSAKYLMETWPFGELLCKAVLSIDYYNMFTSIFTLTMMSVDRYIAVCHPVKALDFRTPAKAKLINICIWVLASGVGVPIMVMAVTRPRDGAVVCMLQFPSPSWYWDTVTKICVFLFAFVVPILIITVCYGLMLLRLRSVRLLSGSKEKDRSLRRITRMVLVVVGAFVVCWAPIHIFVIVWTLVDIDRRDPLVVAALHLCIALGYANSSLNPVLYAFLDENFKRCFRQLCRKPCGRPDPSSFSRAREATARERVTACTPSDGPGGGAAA

Molecule: CC(C)NCC(O)COc1ccc(CCOCC2CC2)cc1 (centres unmarked) [Betaxolol]
- percent time spent in the platform quadrant, probe trial (APPswe/PS1ΔE9 mice [1]): showed less significant effect; also recorded: showed no effect
- escape latency, visible platform training (APPswe/PS1ΔE9 mice [1]): no drug effect was observed
- escape latency, hidden platform training (APPswe/PS1ΔE9 mice [1]): showed some effect; also recorded: showed some extent of amelioration, but the effect was not statistically significant
- crossing of the blood-brain barrier (BBB) [2]: can cross the BBB

Molecule: COc1ccc(OC)c(C(O)C(C)NC(C)(C)C)c1 (centres unmarked) [Butoxamine]
- swim speed as cause of the observed effects (APPswe/PS1ΔE9 mice [1]): not due to difference in swim speeds
- escape latency, visible platform training (APPswe/PS1ΔE9 mice [1]): no drug effect was observed
- escape latency, hidden platform training (APPswe/PS1ΔE9 mice [1]): significantly ameliorated cognitive impairment
- crossing of the blood-brain barrier (BBB) [2]: can cross the BBB

Molecule: CC(C)C[C@@H](NC(=O)[C@H](Cc1ccccc1)NC(=O)CNC(=O)[C@@H](C)NC(=O)[C@@H](N)Cc1ccc(O)cc1)C(=O)O [DADLE, [D-Ala^2, D-Leu^5]-enkephalin]
- γ-secretase activity (γ-secretase [3]): enhanced γ-secretase activity
- γ-secretase activity (γ-secretase [4]; SH-SY5Y neuroblastoma, 1 μM DADLE, 30 minutes): enhanced γ-secretase activity
- γ-secretase activity in the AP positive fraction (γ-secretase [4]; SH-SY5Y, 1 μM DADLE 30 minutes, then fractionated): enhanced the γ-secretase activity in the AP positive fraction

Molecule: Cc1ccc(OCC(O)C(C)NC(C)C)c2c1CCC2 (centres unmarked) [ICI 118,551]
- swim speed as cause of the observed effects (APPswe/PS1ΔE9 mice [1]): did not result from changes in swim speeds
- escape latency, visible platform training (APPswe/PS1ΔE9 mice [1]): no drug effect was observed
- escape latency, hidden platform training (APPswe/PS1ΔE9 mice [1]): significantly ameliorated cognitive impairment
- crossing of the blood-brain barrier (BBB) [2]: can cross the BBB
- cerebral amyloid plaques (APPswe/PS1ΔE9 mice [5]): significantly reduced the amounts of amyloid plaques; also recorded: effective in suppressing the formation of β-amyloid plaques
- percentage time spent on the platform, probe trial ([6]; 24-h after final hidden platform training, 1 mg/kg ICI 118,551 oral daily for 30 days, listed as ICI): spent greater proportion of time in the platform; also recorded: spent greater proportion of time in the target quadrant
- escape latency, visible platform [6]: small, but statistically insignificant, effects of drug treatments; also recorded: No significant effect
- escape latency, hidden platform [6]: displayed a faster learning curve than the Sal mice; also recorded: displayed a faster learning curve than the Sal ones

Molecule: CC(C)NCC(O)c1ccc(O)c(O)c1 (centres unmarked) [Iso, isoproterenol]
- cerebral amyloid plaques (APPswe/PS1ΔE9 mice [5]): increased cerebral amyloid plaques; also recorded: accelerated amyloid plaque formation
- Iso-induced enhancement of γ-secretase activity (γ-secretase [7]): Presenilin-deficiency abolished the Iso-induced enhancement
- secreted Aβ (endogenous β-ARs): increases Aβ production
- co-localization of PS1 or nicastrin with LAMP-1 (γ-secretase [8]): increased
- γ-secretase activity, compound alone (γ-secretase [9]): γ-secretase activity was enhanced

Molecule: CC(C)C[C@H](NC(=O)[C@H](Cc1ccccc1)C[C@@H](O)[C@H](Cc1ccccc1)NC(=O)OC(C)(C)C)C(=O)N[C@@H](Cc1ccccc1)C(N)=O [L685,458]
- effect on Iso-induced increase in secreted Aβ (β2AR): abolished the increased production of the secreted Aβ

Molecule: COCCc1ccc(OCC(O)CNC(C)C)cc1 (centres unmarked) [Metoprolol]
- percent time spent in the platform quadrant, probe trial (APPswe/PS1ΔE9 mice [1]): showed no effect
- percent time spent in the platform quadrant, probe trial (APPswe/PS1ΔE9 mice [1]; listed as metoprolol): had no effect
- escape latency, visible platform training (APPswe/PS1ΔE9 mice [1]): no drug effect was observed
- escape latency, hidden platform training (APPswe/PS1ΔE9 mice [1]): showed no effect

Molecule: CC(C)(C)NCC(O)c1cc(Cl)c(N)c(Cl)c1 (centres unmarked) [clenbuterol]
- cerebral amyloid plaques (APPswe/PS1ΔE9 mice [5]): accelerated amyloid plaque formation
- cerebral amyloid plaques (APPswe/PS1ΔE9 mice [5]; listed as Cle): increased cerebral amyloid plaques
- escape latency, visible platform [6]: small, but statistically insignificant, effects of drug treatments; also recorded: No significant effect
- escape latency, hidden platform [6]: seemed to have no effect
- γ-secretase activity in hippocampus (γ-secretase [10]): significantly enhanced; also recorded: enhanced γ-secretase activity
- Aβ levels (Aβ40 and Aβ42) in hippocampus (Aβ40 and Aβ42): significantly enhanced; also recorded: increased secreted Aβ 40 and Aβ 42 levels

Molecule: CC(C)(C)NCC(O)COc1cccc2c1CC(O)C(O)C2 (centres unmarked) [nadolol]
- percent time spent in the platform quadrant, probe trial (APPswe/PS1ΔE9 mice [1]): had no effect
- escape latency, visible platform training (APPswe/PS1ΔE9 mice [1]): No genotype or drug effect
- escape latency, hidden platform training (APPswe/PS1ΔE9 mice [1]): showed no effect
- escape latency, hidden platform training (APPswe/PS1ΔE9 mice [1]; listed as Nadolol): showed no effect on the impairment

Molecule: Oc1ccc2c3c1O[C@H]1c4[nH]c5ccccc5c4C[C@@]4(O)[C@@H](C2)N(CC2CC2)CC[C@]314 [naltrindole]
- escape latency, visible platform training (APPswe/PS1ΔE9 mice [1]): no drug effect was observed
- escape latency, hidden platform training (APPswe/PS1ΔE9 mice [1]): ameliorated cognitive impairment
- crossing of the blood-brain barrier (BBB) [2]: can cross the BBB
- effect on DADLE-induced Aβ production (δ-opioid receptor (DOR)): abolished the effect of DADLE

Molecule: NC[C@H](O)c1ccc(O)c(O)c1 [norepinephrine]
- γ-secretase activity in hippocampus (γ-secretase [10]): significantly enhanced; also recorded: enhanced γ-secretase activity
- Aβ levels (Aβ40 and Aβ42) in hippocampus (Aβ40 and Aβ42): significantly enhanced; also recorded: increased secreted Aβ 40 and Aβ 42 levels

Molecule: CC(C)NCC(O)COc1cccc2ccccc12 (centres unmarked) [propranolol]
- percent time spent in the platform quadrant, probe trial (APPswe/PS1ΔE9 mice [1]): partially ameliorated the impairment of spatial memory
- swim speed as cause of the observed effects (APPswe/PS1ΔE9 mice [1]): did not result from difference in swim speeds
- escape latency, visible platform training (APPswe/PS1ΔE9 mice [1]): No genotype or drug effect
- escape latency, hidden platform training (APPswe/PS1ΔE9 mice [1]): partially ameliorate the impairment

Molecule: cholera toxin
- γ-secretase activity, compound alone (γ-secretase [9]): did not result in enhanced γ-secretase activity

Molecule: concanavalin A [Con A]
- effect on Iso-induced enhancement of γ-secretase activity (γ-secretase [9]; C6 glioma, 10 μM Iso 30 min after pretreatment with 0.25 mg/ml Con A or 0.5 M Suc): abolished

Molecule: pertussis toxin [PTX]
- effect on DADLE-induced enhancement of γ-secretase activity (γ-secretase [4]; SH-SY5Y, 1 μM DADLE after 12 hours pre-treatment with 200 ng/ml PTX): not abolished; also recorded: did not alter the enhancement of γ-secretase activity

Molecule: transferrin
- γ-secretase activity (γ-secretase [11]): does not lead to enhanced γ-secretase activity; also recorded: failed to enhance γ-secretase activity
